From ChEMBL document CHEMBL1201862, “PubChem BioAssay data set” (2004)
Active and inactive are the calls of the source.

How the values were obtained:
[1] = cytotoxicity toward NIH3T3 fibroblasts, dose response, counter-screen, cell-based, ATP luminescence, mouse fibroblasts (AID 2010); format: functional;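 also: cells exposed to compound for about 90 hours before reading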
[2] = target: T1, Heat shock factor protein 1 (Mus musculus, UniProt P38532); assay: HSF1 potentiators in luciferase reporter cells, confirmation, cell-based, NIH3T3, luminescence, dose retest (AID 435004); format: functional;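 also: stress induced by proteasome inhibitor MG132 added 30 min after compound; luciferase reporter driven by HSF1 response element in NIH3T3 cells; actives raise luminescence as potentiators of the MG132 stress response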
T1 sequence (P38532 whole entry): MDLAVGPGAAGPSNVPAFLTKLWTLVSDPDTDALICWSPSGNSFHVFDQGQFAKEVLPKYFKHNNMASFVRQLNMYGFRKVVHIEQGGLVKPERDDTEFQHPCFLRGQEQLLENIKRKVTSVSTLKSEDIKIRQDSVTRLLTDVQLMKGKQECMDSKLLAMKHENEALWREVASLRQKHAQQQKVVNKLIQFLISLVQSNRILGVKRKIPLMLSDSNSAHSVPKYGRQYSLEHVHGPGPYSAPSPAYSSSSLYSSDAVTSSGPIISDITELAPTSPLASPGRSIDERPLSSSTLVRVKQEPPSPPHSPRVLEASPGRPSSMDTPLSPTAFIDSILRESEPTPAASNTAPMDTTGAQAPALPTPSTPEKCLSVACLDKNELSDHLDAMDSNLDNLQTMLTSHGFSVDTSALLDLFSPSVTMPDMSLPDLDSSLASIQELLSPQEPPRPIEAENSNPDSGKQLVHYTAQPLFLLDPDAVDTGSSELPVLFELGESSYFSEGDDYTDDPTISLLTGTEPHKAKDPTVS

[3] = target: T2, Streptokinase A (Streptococcus pyogenes serotype M1, UniProt P10520); assay: S. pyogenes streptokinase expression inhibitors, potency, dose response, plasminogen activation absorbance, OD405 (AID 1914); format: functional, Streptococcus pyogenes M1 GAS;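 also: secreted streptokinase activity via plasminogen activation per viability signal from cell pellet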
T2 sequence (P10520 whole entry): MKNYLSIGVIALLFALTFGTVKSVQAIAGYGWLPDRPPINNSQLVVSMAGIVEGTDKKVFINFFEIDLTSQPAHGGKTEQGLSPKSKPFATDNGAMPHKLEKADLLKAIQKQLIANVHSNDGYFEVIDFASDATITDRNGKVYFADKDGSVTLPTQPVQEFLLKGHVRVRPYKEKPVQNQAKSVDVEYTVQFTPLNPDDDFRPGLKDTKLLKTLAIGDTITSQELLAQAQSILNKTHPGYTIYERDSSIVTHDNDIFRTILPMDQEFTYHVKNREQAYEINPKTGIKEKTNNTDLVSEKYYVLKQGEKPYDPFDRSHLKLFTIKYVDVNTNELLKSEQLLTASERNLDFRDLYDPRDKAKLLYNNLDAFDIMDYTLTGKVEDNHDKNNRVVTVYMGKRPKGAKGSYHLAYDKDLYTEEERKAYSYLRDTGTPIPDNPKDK

[4] = system: Streptococcus sp. 'group A'; assay: growth inhibition of control SK(-) GAS strain, dose response, counter-screen for streptokinase expression inhibitor project, luminescence, kanamycin, BacTiterGlo, confirmation (AID 1900); format: functional, organism-based
[5] = system: Vero; assay: host cell cytotoxicity of antiviral hits, dose response, cytotoxicity control for West Nile virus antiviral project, secondary assay (AID 1650); format: functional; conditions: Chlorocebus sabaeus
[6] = Luminescence Cell-Based Dose Retest to Confirm Inhibitors of Cancer Stem Cells. [Related pubchem assays (depositor defined):AID2717, AID2721]; format: functional; conditions: Homo sapiens
[7] = system: Streptococcus; assay: Group A Streptococcus viability loss, dose response, counter-screen for streptokinase expression inhibitor project, luminescence, BacTiterGlo (AID 1915); format: functional, organism-based;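 also: potency for reduction of bacterial viability or growth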
[8] = target: Paired box protein Pax-8 (Homo sapiens, UniProt Q06710); assay: inhibitors of PAX8-driven TPO luciferase reporter, dose response, RMG-I cells, cherry-pick (AID 687027); format: functional, cell-based;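 also: luciferase reporter driven by Pax8 target thyroperoxidase promoter measured by SteadyGlo luminescence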
[9] = inhibitors of intracellular T. cruzi replication, confirmation, NIH3T3 host cells, beta-gal luminescence (AID 2044); format: functional, cell-based;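 also: intracellular parasites grown in NIH/3T3 mouse fibroblasts as host cells; luminescent beta-galactosidase reporter signal from transgenic T. cruzi replicating inside host cells; inhibitors lower the luminescence signal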
[10] = target: T3, Estrogen receptor (Homo sapiens, UniProt P03372);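 also: potency for inhibiting coactivator peptide recruitment to the receptor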
T3 sequence (P03372 whole entry): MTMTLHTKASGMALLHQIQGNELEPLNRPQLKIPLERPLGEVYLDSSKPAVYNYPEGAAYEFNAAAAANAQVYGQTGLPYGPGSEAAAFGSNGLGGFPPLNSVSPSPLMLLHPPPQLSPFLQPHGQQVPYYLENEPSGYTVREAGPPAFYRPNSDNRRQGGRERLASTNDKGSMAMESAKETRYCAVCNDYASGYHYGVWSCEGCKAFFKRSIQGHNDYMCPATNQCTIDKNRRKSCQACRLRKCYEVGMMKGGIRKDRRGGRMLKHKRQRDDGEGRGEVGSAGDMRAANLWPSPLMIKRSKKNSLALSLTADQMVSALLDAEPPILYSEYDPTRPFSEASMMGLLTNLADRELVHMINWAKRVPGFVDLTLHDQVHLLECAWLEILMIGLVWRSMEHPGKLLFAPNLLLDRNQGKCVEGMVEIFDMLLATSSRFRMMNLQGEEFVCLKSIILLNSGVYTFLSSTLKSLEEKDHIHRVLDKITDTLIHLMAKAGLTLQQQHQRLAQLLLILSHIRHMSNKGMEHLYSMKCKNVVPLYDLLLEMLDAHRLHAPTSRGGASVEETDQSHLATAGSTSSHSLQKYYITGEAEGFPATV

[11] = target: T4, Leucine aminopeptidase (Plasmodium falciparum 3D7, UniProt Q8IL11); assay: P. falciparum M17LAP inhibitors, primary screen, biochemical, fluorogenic H-Leu-NHMec substrate, 1536-well (AID 1619); format: functional
T4 sequence (Q8IL11 whole entry): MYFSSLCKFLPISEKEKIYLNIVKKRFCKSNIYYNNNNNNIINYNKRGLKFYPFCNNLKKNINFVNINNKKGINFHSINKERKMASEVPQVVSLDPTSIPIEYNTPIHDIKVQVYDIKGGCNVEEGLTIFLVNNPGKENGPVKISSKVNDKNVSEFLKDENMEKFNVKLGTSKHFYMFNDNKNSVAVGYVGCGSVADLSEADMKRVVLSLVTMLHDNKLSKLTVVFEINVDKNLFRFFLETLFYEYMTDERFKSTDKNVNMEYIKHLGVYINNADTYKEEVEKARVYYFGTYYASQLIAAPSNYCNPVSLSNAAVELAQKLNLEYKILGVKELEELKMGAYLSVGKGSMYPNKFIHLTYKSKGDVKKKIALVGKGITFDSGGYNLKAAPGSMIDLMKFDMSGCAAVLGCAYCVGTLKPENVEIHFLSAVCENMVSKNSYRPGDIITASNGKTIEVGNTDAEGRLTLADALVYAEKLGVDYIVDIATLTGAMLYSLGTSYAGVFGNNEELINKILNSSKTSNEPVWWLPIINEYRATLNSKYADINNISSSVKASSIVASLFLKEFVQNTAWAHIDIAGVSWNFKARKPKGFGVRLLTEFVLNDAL

[12] = Luminescence Cell-Based Dose Confirmation HTS to Identify Activators of 5'UTR Stem-Loop Driven Alpha-Synuclein mRNA Translation in H4 Neuroglioblastoma Cells. [Related pubchem assays: 1829 (Project Summary), 1814 (Primary HTS)]; format: functional
[13] = Counterscreen for inhibitors of Trypanosoma brucei methionyl tRNA synthetase (MetRS): Luminescence-based cell-based high throughput dose response assay to identify compounds that are cytotoxic to Jurkat human T lymphocyte cells.; format: functional
[14] = system: H4; assay: Luminescence Cell-Based Dose Response HTS to Identify Activators of 5'UTR Stem-Loop Driven Prion Protein mRNA Translation in H4 Neuroglioblastoma Cells. [Related pubchem assays: 1829 (Project Summary), 1814 (Primary HTS)]; format: functional; conditions: Homo sapiens
[15] = target: T5, Methionyl-tRNA synthetase, putative (Trypanosoma brucei brucei, UniProt Q38C91); format: functional, Trypanosoma brucei brucei strain 927/4 GUTat10.1
T5 sequence (Q38C91 whole entry): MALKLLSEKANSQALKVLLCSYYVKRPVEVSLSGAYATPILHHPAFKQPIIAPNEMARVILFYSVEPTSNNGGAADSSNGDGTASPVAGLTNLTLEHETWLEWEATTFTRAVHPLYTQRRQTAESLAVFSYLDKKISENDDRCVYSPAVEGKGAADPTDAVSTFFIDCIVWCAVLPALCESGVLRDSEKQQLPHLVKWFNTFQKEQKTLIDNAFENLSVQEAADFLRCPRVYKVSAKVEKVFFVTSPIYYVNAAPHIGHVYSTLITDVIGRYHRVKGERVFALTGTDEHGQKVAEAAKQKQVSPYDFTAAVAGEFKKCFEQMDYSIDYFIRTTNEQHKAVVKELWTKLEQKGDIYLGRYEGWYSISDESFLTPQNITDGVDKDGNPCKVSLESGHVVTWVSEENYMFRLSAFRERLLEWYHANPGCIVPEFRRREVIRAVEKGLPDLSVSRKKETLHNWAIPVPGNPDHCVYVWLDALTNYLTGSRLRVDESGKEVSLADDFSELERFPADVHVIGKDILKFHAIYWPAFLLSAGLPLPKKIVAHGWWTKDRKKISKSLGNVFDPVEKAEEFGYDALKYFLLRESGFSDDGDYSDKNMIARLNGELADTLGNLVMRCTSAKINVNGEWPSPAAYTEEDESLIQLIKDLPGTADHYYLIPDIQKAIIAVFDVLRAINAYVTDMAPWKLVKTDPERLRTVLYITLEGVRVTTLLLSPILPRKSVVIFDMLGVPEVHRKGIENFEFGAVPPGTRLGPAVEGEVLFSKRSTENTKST

[16] = target: T5, Methionyl-tRNA synthetase, putative; format: functional, Trypanosoma brucei brucei strain 927/4 GUTat10.1; remark: listed apart in the source
[17] = Luminescence Cell-Based Dose Response HTS to Identify Activators of Luciferase Translation or Activity in H4 […] Cells. [Related pubchem assays: 1829 (Project Summary), 1814 (Primary HTS)]; format: functional
[18] = P. falciparum 3D7-ScDHODH growth inhibitors, dose response, SYBR Green, dry powder samples (AID 1159570); format: functional, cell-based;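 also: parasite growth measured after 72 hours of compound exposure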
[19] = P. falciparum ATP4 D1247Y mutant growth inhibitors, dose response, NITD609-resistant line, SYBR Green, dry powder (AID 1159571); format: functional, cell-based;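 also: parasites synchronized at ring stage by sorbitol before testing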
[20] = P. falciparum Dd2 growth inhibitors, dose response, SYBR Green, cherry-picked samples (AID 1159567); format: functional, cell-based
[21] = P. falciparum Dd2 growth inhibitors, dose response, SYBR Green, dry powder samples (AID 1159566); format: functional, cell-based;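 also: potency for growth inhibition with lower SYBR green DNA signal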
[22] = HepG2 cell cytotoxicity, dose response, cytotoxicity control, plate reader, cherry-pick, antagonist series (AID 743416); format: functional, cell-based
[23] = LGR2 antagonists, dose response, cell-based, HEK293, CRE-luciferase reporter, cherry pick, set 2 (AID 743343); format: functional;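 also: transfected cells were stimulated with diluted bursicon conditioned medium after compound addition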
[24] = MC4R antagonists, dose response, counter-screen for LGR2 antagonist project, cell-based, plate reader, cherry pick (AID 743444); format: functional;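 also: transfected HEK 293 cells stimulated with alpha-MSH peptide; potency of inhibitors of the alpha-MSH evoked signal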

Paired box protein Pax-8, sequence (Q06710 whole entry): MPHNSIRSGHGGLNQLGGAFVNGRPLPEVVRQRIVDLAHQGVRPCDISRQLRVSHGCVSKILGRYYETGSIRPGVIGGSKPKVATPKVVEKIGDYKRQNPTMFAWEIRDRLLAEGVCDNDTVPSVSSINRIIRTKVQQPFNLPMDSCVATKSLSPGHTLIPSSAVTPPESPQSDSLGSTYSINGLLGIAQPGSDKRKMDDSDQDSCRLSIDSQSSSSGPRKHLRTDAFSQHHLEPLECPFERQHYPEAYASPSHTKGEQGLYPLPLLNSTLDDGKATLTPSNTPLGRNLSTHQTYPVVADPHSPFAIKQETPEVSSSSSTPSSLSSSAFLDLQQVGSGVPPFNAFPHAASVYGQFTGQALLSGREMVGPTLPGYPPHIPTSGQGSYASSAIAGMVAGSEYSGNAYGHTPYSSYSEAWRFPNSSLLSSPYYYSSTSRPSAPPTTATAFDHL

O=C(Nc1cccc(Cl)c1)Nc1csc([N+](=O)[O-])c1
EC50 [1]: > 60 µM (not active) | EC50 [2]: 31.6 µM (active) | EC50 [3]: > 150 µM (not active) | EC50 [4]: 9.68 µM (active) | CC50 [5]: > 100 µM (active) | AC50 [6]: 4.34 µM (active) | EC50 [7]: 15.3 µM (active) | AC50 [8]: 11.6 µM (active) | EC50 [9]: 3.47 µM (active)

CC1(C)CC(=O)c2cnc(NCC3CCCO3)nc2C1 (centres undefined)
IC50 [10]: > 50 µM (not active)

CCOC(=O)c1c(NC(=O)CSc2nnc(C)c(=O)[nH]2)sc2c1CCC2
IC50 [11]: 7.77 µM (active)

Cc1ccccc1Oc1cc(NC(=O)Cn2cnc([N+](=O)[O-])c2)cc([N+](=O)[O-])c1
EC50 [12]: > 120 µM (not active) | IC50 [13]: 37.3 µM (inactive) | EC50 [14]: > 120 µM (not active) | IC50 [15]: 51.3 µM (inactive) | IC50 [16]: 52.5 µM (inactive) | EC50 [17]: > 120 µM (not active)

COc1ccc(-c2ccccc2[C@H]2[C@@H](C#N)N(C(=O)C3CCCCC3)[C@H]2CO)cc1
AC50 [18]: 1.38 µM (active) | AC50 [19]: 5.94 µM (active) | AC50 [20]: 1.03 µM (active) | AC50 [21]: 1.52 µM (active)

O=C(NCC1CCCO1)C(=Cc1cccc([N+](=O)[O-])c1)C(=O)NCC1CCCO1 (centres undefined)
CC50 [5]: 23.6 µM (active) | AC50 [8]: 3.43 µM (active)

CC(=O)NS(=O)(=O)c1ccc(NC(=O)c2cc(-c3ccc(C)cc3)nc3ccccc23)cc1
IC50 [11]: 13.7 µM (active)

COc1ccc(-n2nnnc2-c2nc3ccccc3s2)cc1
AC50 [22]: > 52 µM (inactive) | AC50 [23]: 6.52 µM (active) | AC50 [24]: 7.96 µM (active)

CCOC(=O)c1c(NC(=O)CCS(=O)(=O)c2ccccc2)sc2c1CCN(C(C)C)C2
CC50 [5]: 69.1 µM (active)

O=C(Nc1cccc(-c2cnc3ccccc3n2)c1)c1cccc(NC(=O)c2ccco2)c1
IC50 [10]: 13.1 µM (active)
